Among the data in US20260242419A1, “A CYCLIC PEPTIDE FOR TRAPPING INTERLEUKIN-1 BETA” (Merck Sharp & Dohme LLC, priority 2023, published 2026) are IC50 values, retold here.

Starred links: 1 amine or outer side, 2 acyl side, 3 side chain; linkers in the order of their positions; H or OH if unused. Non-standard residues stand in square brackets, D forms with d. Residues, ends and D or L forms follow the SMILES beside them. dPro(4R-(4-pyridylmethyl)) = O=C(O)[C@H]1C[C@@H](Cc2ccncc2)CN1; Trp(βS-Me,4-F) = C[C@@H](c1c[nH]c2cccc(F)c12)[C@H](N)C(=O)O; 3Aminoazetidine3carboxyl = O=C(C1(N[*:1])CN([*:3])C1)[*:2]; Bip(4'-COOH) = N[C@@H](Cc1ccc(-c2ccc(C(=O)O)cc2)cc1)C(=O)O; Ala(1-bicyclo(1.1.1)pentyl) = N[C@@H](CC12CC(C1)C2)C(=O)O; dPro(4R-Bzl(4-F)) = O=C(O)[C@H]1C[C@@H](Cc2ccc(F)cc2)CN1; X3 = CC(=O)NCCOc1ccc(C[C@H](N[*:1])C(=O)[*:2])cn1; Ala(morpholin-4-yl) = N[C@@H](CN1CCOCC1)C(=O)O; Ala(pyrimidin-5-yl) = N[C@@H](Cc1cncnc1)C(=O)O; Phe(4-COOH) = N[C@@H](Cc1ccc(C(=O)O)cc1)C(=O)O; Pro(cis-4-F) = O=C(O)[C@@H]1C[C@H](F)CN1; 4Pal = N[C@@H](Cc1ccncc1)C(=O)O; d(αMeS) = C[C@@](N)(CO)C(=O)O; αMeS = C[C@](N)(CO)C(=O)O; Dab = NCC[C@H](N)C(=O)O; Aib = CC(C)(N)C(=O)O

The target of the first assay is T1, IL-1β (Homo sapiens, UniProt P01584).
T1 construct: purchased BioLegend 579404
T1 sequence (P01584 117-269): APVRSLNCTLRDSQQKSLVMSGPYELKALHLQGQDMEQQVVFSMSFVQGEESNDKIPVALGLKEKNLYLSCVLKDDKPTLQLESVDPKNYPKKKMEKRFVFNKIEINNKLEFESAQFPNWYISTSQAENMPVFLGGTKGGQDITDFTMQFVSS
As to the kind of experiment: IL-6 assay in MRC5 cells: inhibition of IL-1β induced IL-6 secretion (AlphaLISA). The class given is cell-based.
Conditions: not given
As for the experimental part: Procedure for IL-6 Assay in MRC5 Cells
The inhibition of IL-1β induced IL-6 secretion was evaluated in MRC5 cells. Recombinant human IL-1β (BioLegend 579404) at 2λ EC80 concentration was prepared in seeding medium. EMEM (ATCC 30-2003) with 0.025% BSA (Sigma A9576), 1×penicillin/streptomycin (Gibco 15070-063), 1×NEAA (Gibco 11140-050), 1×GlutaMax (Gibco 35050-061), and 1×sodium pyruvate (Gibco 11360-070), 20 μL of IL-1β was added to a 384-well collagen-coated plate (Corning 354664) and pre-incubated at ambient temperature for 1 hour with 200 nL of compound dispensed using an ECHO 555 liquid handler. Human lung fibroblast MRC5 cells (ATCC CCL-171) were added at a density of 3000 cells/20 μL per well. The cells were prepared by passaging three times in growth medium, EMEM (ATCC 30-2003) with 10% fetal bovine serum (Gibco 16140-071), 1×penicillin/streptomycin (Gibco 15070-063), 1×NEAA (Gibco 11140-050), 1×GlutaMax (Gibco 35050-061), and 1×sodium pyruvate (Gibco 11360-070) in collagen-coated T175 flasks (Greiner 661950) and harvested in seeding medium after 5 minutes of 0.25% trypsin-EDTA (Gibco 25200-056) digestion. The 384-well collagen-coated plate, containing a final volume of 40 μL, was incubated at 37° C., 5% CO2 overnight. 5 μL of the conditioned medium was transferred to a 384-well AlphaLISA plate (PerkinElmer 6005350) for detection of IL-6 using the human AlphaLISA IL-6 kit (PerkinElmer AL223F) as per the manufacturer's protocol. 20 μL of the acceptor bead/biotinylated antibody mix was added to the 384-well AlphaLISA plate and incubated for 1 hour at ambient temperature. The donor bead mix was protected from light and 25 μL was added to the plate and incubated for 30 minutes at ambient temperature. The AlphaLISA plate was read on an EnVision multimode plate reader (Perkin Elmer model 2104) using the AlphaScreen setting (laser exc at 680 nm and emis at […]). Dose response curves and IC50 values were analyzed using a 4-parameter logistic equation in Spotfire software (Tibco, Palo Alto, CA).
Take `C[C@@H](c1c[nH]c2cccc(F)c12)[C@@H]1NC(=O)[C@@H]2C[C@H](F)CN2C(=O)CNC(=O)[C@H](Cc2ccc(C(=O)O)cc2)NC(=O)[C@H](Cc2ccncc2)NC(=O)[C@H](Cc2ccc(-c3ccc(C(=O)O)cc3)cc2)NC(=O)[C@H]2C[C@@H](Cc3ccc(F)cc3)CN2C(=O)CNC(=O)[C@H](CCN)NC(=O)[C@H](CCC(N)=O)NC(=O)[C@H](Cc2cncnc2)NC(=O)C(C)(C)NC(=O)[C@H](Cc2c[nH]c3ccccc23)NC(=O)[C@H](CCC(=O)O)NC(=O)[C@](C)(CO)NC1=O` [Example 22] (cyclo([4Pal][Phe(4-COOH)]G[Pro(cis-4-F)][Trp(βS-Me,4-F)][αMeS]EW[Aib][Ala(pyrimidin-5-yl)]Q[Dab]G[dPro(4R-Bzl(4-F))][Bip(4'-COOH)])): 0.027 nM corresponded to half-maximal inhibition (IC50).

Still in this assay, the particulars now being: inhibition of IL-1β induced IL-6 secretion in MRC5 cells; read-out: MRC5 IC50.
On to `CC(=O)NCCOc1ccc(C[C@@H]2NC(=O)[C@H]3C[C@@H](Cc4ccc(F)cc4)CN3C(=O)CNC(=O)[C@H](CCN)NC(=O)[C@H](CCC(N)=O)NC(=O)[C@H](Cc3cncnc3)NC(=O)C(C)(C)NC(=O)[C@H](Cc3c[nH]c4ccccc34)NC(=O)[C@H](CCC(=O)O)NC(=O)C(C)(C)NC(=O)[C@H]([C@@H](C)c3c[nH]c4cccc(F)c34)NC(=O)[C@@H]3C[C@H](F)CN3C(=O)CNC(=O)[C@H](Cc3ccc(C(=O)O)cc3)NC(=O)[C@H](Cc3ccncc3)NC2=O)cn1` [Example 12] (cyclo([X3][4Pal][Phe(4-COOH)]G[Pro(cis-4-F)][Trp(βS-Me,4-F)][Aib]EW[Aib][Ala(pyrimidin-5-yl)]Q[Dab]G[dPro(4R-Bzl(4-F))])), for which the IC50 (in general, the concentration needed to halve the response being measured) turned out to be 0.072 nM.

For the compound `C[C@@H](c1c[nH]c2cccc(F)c12)[C@@H]1NC(=O)[C@@H]2C[C@H](F)CN2C(=O)CNC(=O)[C@H](Cc2ccc(C(=O)O)cc2)NC(=O)[C@H](CC23CC(C2)C3)NC(=O)[C@H](Cc2ccc(-c3ccc(C(=O)O)cc3)cc2)NC(=O)[C@H]2C[C@@H](Cc3ccc(F)cc3)CN2C(=O)CNC(=O)[C@H](CCN)NC(=O)[C@H](CCC(N)=O)NC(=O)[C@H](Cc2cncnc2)NC(=O)C(C)(C)NC(=O)[C@H](Cc2c[nH]c3ccccc23)NC(=O)[C@H](CCC(=O)O)NC(=O)C(C)(C)NC1=O` [Example 13] (cyclo([Bip(4'-COOH)][Ala(1-bicyclo(1.1.1)pentyl)][Phe(4-COOH)]G[Pro(cis-4-F)][Trp(βS-Me,4-F)][Aib]EW[Aib][Ala(pyrimidin-5-yl)]Q[Dab]G[dPro(4R-Bzl(4-F))])), the IC50 amounted to 0.022 nM. With `C[C@@H](c1c[nH]c2cccc(F)c12)[C@@H]1NC(=O)[C@@H]2C[C@H](F)CN2C(=O)CNC(=O)[C@H](Cc2ccc(C(=O)O)cc2)NC(=O)[C@H](Cc2ccncc2)NC(=O)[C@H](Cc2ccc(-c3ccc(C(=O)O)cc3)cc2)NC(=O)[C@H]2C[C@@H](Cc3ccncc3)CN2C(=O)CNC(=O)[C@H](CCN)NC(=O)[C@H](CCC(N)=O)NC(=O)[C@H](Cc2cncnc2)NC(=O)C(C)(C)NC(=O)[C@H](Cc2c[nH]c3ccccc23)NC(=O)[C@H](CCC(=O)O)NC(=O)C(C)(C)NC1=O` [Example 14] (cyclo([Bip(4'-COOH)][4Pal][Phe(4-COOH)]G[Pro(cis-4-F)][Trp(βS-Me,4-F)][Aib]EW[Aib][Ala(pyrimidin-5-yl)]Q[Dab]G[dPro(4R-(4-pyridylmethyl))])), the IC50 turned out to be 0.035 nM. Turning to `C[C@@H](c1c[nH]c2cccc(F)c12)[C@@H]1NC(=O)[C@@H]2C[C@H](F)CN2C(=O)CNC(=O)[C@H](Cc2ccc(C(=O)O)cc2)NC(=O)[C@H](Cc2ccncc2)NC(=O)[C@H](Cc2ccc(-c3ccc(C(=O)O)cc3)cc2)NC(=O)[C@H]2C[C@@H](Cc3ccncc3)CN2C(=O)CNC(=O)[C@H](CCN)NC(=O)[C@H](CCC(N)=O)NC(=O)[C@H](Cc2ccncc2)NC(=O)C(C)(C)NC(=O)[C@H](Cc2c[nH]c3ccccc23)NC(=O)[C@H](CCC(=O)O)NC(=O)C(C)(C)NC1=O` [Example 15] (cyclo([Bip(4'-COOH)][4Pal][Phe(4-COOH)]G[Pro(cis-4-F)][Trp(βS-Me,4-F)][Aib]EW[Aib][4Pal]Q[Dab]G[dPro(4R-(4-pyridylmethyl))])), the IC50 is 0.035 nM. Consider `C[C@@H](c1c[nH]c2cccc(F)c12)[C@@H]1NC(=O)[C@@H]2C[C@H](F)CN2C(=O)CNC(=O)[C@H](Cc2ccc(C(=O)O)cc2)NC(=O)[C@H](Cc2ccncc2)NC(=O)[C@H](Cc2ccc(-c3ccc(C(=O)O)cc3)cc2)NC(=O)[C@H]2C[C@@H](Cc3ccc(F)cc3)CN2C(=O)CNC(=O)[C@H](CCN)NC(=O)[C@H](CCC(N)=O)NC(=O)[C@H](Cc2cncnc2)NC(=O)C(C)(C)NC(=O)[C@H](Cc2c[nH]c3ccccc23)NC(=O)[C@H](CC(=O)O)NC(=O)C(C)(C)NC1=O` [Example 17] (cyclo([Bip(4'-COOH)][4Pal][Phe(4-COOH)]G[Pro(cis-4-F)][Trp(βS-Me,4-F)][Aib]DW[Aib][Ala(pyrimidin-5-yl)]Q[Dab]G[dPro(4R-Bzl(4-F))])), for which the IC50 worked out at 0.029 nM. Same read-out and setting: in the case of `C[C@@H](c1c[nH]c2cccc(F)c12)[C@@H]1NC(=O)[C@@H]2C[C@H](F)CN2C(=O)CNC(=O)[C@H](Cc2ccc(C(=O)O)cc2)NC(=O)[C@H](Cc2ccncc2)NC(=O)[C@H](Cc2ccc(-c3ccc(C(=O)O)cc3)cc2)NC(=O)[C@H]2C[C@@H](Cc3ccc(F)cc3)CN2C(=O)CNC(=O)[C@H](CCN)NC(=O)[C@H](CCC(N)=O)NC(=O)[C@H](Cc2cncnc2)NC(=O)[C@](C)(CO)NC(=O)[C@H](Cc2c[nH]c3ccccc23)NC(=O)[C@H](CCC(=O)O)NC(=O)C(C)(C)NC1=O` [Example 18] (cyclo([Bip(4'-COOH)][4Pal][Phe(4-COOH)]G[Pro(cis-4-F)][Trp(βS-Me,4-F)][Aib]EW[αMeS][Ala(pyrimidin-5-yl)]Q[Dab]G[dPro(4R-Bzl(4-F))])) it was 0.027 nM; in that of `C[C@@H](c1c[nH]c2cccc(F)c12)[C@@H]1NC(=O)[C@@H]2C[C@H](F)CN2C(=O)CNC(=O)[C@H](Cc2ccc(C(=O)O)cc2)NC(=O)[C@H](Cc2ccncc2)NC(=O)[C@H](Cc2ccc(-c3ccc(C(=O)O)cc3)cc2)NC(=O)[C@H]2C[C@@H](Cc3ccc(F)cc3)CN2C(=O)CNC(=O)[C@H](CCN)NC(=O)[C@H](CCC(N)=O)NC(=O)[C@H](Cc2cncnc2)NC(=O)C(C)(C)NC(=O)[C@H](Cc2c[nH]c3ccccc23)NC(=O)[C@H](CCC(=O)O)NC(=O)[C@@](C)(CO)NC1=O` [Example 19] (cyclo([Bip(4'-COOH)][4Pal][Phe(4-COOH)]G[Pro(cis-4-F)][Trp(βS-Me,4-F)][d(αMeS)]EW[Aib][Ala(pyrimidin-5-yl)]Q[Dab]G[dPro(4R-Bzl(4-F))])), 0.021 nM; in that of `C[C@@H](c1c[nH]c2cccc(F)c12)[C@@H]1NC(=O)[C@@H]2C[C@H](F)CN2C(=O)CNC(=O)[C@H](Cc2ccc(C(=O)O)cc2)NC(=O)[C@H](Cc2ccncc2)NC(=O)[C@H](Cc2ccc(-c3ccc(C(=O)O)cc3)cc2)NC(=O)[C@H]2C[C@@H](Cc3ccc(F)cc3)CN2C(=O)CNC(=O)[C@H](CCN)NC(=O)[C@H](CCC(N)=O)NC(=O)[C@H](Cc2cncnc2)NC(=O)C2(CNC2)NC(=O)[C@H](Cc2c[nH]c3ccccc23)NC(=O)[C@H](CCC(=O)O)NC(=O)C(C)(C)NC1=O` [Example 21] (cyclo([Bip(4'-COOH)][4Pal][Phe(4-COOH)]G[Pro(cis-4-F)][Trp(βS-Me,4-F)][Aib]EW[3Aminoazetidine3carboxyl][Ala(pyrimidin-5-yl)]Q[Dab]G[dPro(4R-Bzl(4-F))])), 0.04 nM. Regarding `C[C@@H](c1c[nH]c2cccc(F)c12)[C@@H]1NC(=O)[C@@H]2C[C@H](F)CN2C(=O)CNC(=O)[C@H](Cc2ccc(C(=O)O)cc2)NC(=O)[C@H](Cc2ccncc2)NC(=O)[C@H](Cc2ccc(-c3ccc(C(=O)O)cc3)cc2)NC(=O)[C@H]2C[C@@H](Cc3ccc(F)cc3)CN2C(=O)CNC(=O)[C@H](CCN)NC(=O)[C@H](CCC(N)=O)NC(=O)[C@H](Cc2cncnc2)NC(=O)[C@@](C)(CO)NC(=O)[C@H](Cc2c[nH]c3ccccc23)NC(=O)[C@H](CCC(=O)O)NC(=O)C(C)(C)NC1=O` [Example 23] (cyclo([Bip(4'-COOH)][4Pal][Phe(4-COOH)]G[Pro(cis-4-F)][Trp(βS-Me,4-F)][Aib]EW[d(αMeS)][Ala(pyrimidin-5-yl)]Q[Dab]G[dPro(4R-Bzl(4-F))])), the IC50 is 0.018 nM. As to `C[C@@H](c1c[nH]c2cccc(F)c12)[C@@H]1NC(=O)[C@@H]2C[C@H](F)CN2C(=O)CNC(=O)[C@H](Cc2ccc(C(=O)O)cc2)NC(=O)[C@H](Cc2ccncc2)NC(=O)[C@H](Cc2ccc(-c3ccc(C(=O)O)cc3)cc2)NC(=O)[C@H]2C[C@@H](Cc3ccc(F)cc3)CN2C(=O)CNC(=O)[C@H](CN2CCOCC2)NC(=O)[C@H](CCC(N)=O)NC(=O)[C@H](Cc2cncnc2)NC(=O)C(C)(C)NC(=O)[C@H](Cc2c[nH]c3ccccc23)NC(=O)[C@H](CCC(=O)O)NC(=O)C(C)(C)NC1=O` [Example 24] (cyclo([Bip(4'-COOH)][4Pal][Phe(4-COOH)]G[Pro(cis-4-F)][Trp(βS-Me,4-F)][Aib]EW[Aib][Ala(pyrimidin-5-yl)]Q[Ala(morpholin-4-yl)]G[dPro(4R-Bzl(4-F))])), the IC50 is 0.049 nM.
